Here are results for 29 compounds from PubChem BioAssay AID2037 (NMMLSC, 2009).

Structures are written as SMILES.

Chain of Cell division control protein 42 homolog (Homo sapiens) (P60953 whole entry, looked up): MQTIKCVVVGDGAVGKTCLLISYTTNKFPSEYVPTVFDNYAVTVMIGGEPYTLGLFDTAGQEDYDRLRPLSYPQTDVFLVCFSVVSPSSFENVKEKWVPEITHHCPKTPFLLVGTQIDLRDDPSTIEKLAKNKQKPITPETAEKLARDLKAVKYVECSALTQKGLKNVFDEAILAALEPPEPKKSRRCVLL

This assay has as its target Cell division control protein 42 homolog (Homo sapiens) (UniProt P60953). As to the kind of experiment: wild-type Cdc42 nucleotide-binding inhibitors, SAR follow-up, biochemical, bead-based multiplex flow cytometry, oxadiazole series (AID 2037). The settings on record: GST-Cdc42 beads, Bodipy-FL-GTP binding, Ki calculated from EC50.
On to `COc1ccc(-c2noc(CCC(=O)N3CCN(c4ccccc4C(F)(F)F)CC3)n2)cc1`, for which the Ki is 420 nM.

On to `Cc1ccc(C)c(N2CCN(C(=O)CCc3nc(-c4ccc(Br)cc4)no3)CC2)c1`, for which the Ki was 340 nM.

For `Cc1cccc(-c2noc(CCC(=O)N3CCN(c4cc(C)ccc4C)CC3)n2)c1`, the inhibitory constant (Ki) was 220 nM.

On to `Cc1ccc(C)c(N2CCN(C(=O)CCc3nc(-c4ccccc4)no3)CC2)c1`, for which the Ki was 850 nM.

Turning to `COc1ccc(-c2noc(CCCC(=O)N3CCN(c4cc(C)ccc4C)CC3)n2)cc1`, the Ki is 1310 nM.

In the case of `Cc1ccc(C)c(N2CCN(C(=O)CCc3nc(-c4ccc(F)cc4)no3)CC2)c1`, the Ki is 80 nM.

With `COc1ccc(-c2noc(CCC(=O)N3CCN(c4ccccc4Cl)CC3)n2)cc1`, the Ki is 170 nM.

Consider `COc1ccc(-c2noc(CCC(=O)N3CCN(c4ccccc4F)CC3)n2)cc1`, for which the Ki was 140 nM.

Turning to `COc1ccc(-c2noc(CCC(=O)N3CCN(c4ccc(C)cc4)CC3)n2)cc1`, the inhibition constant (Ki) is 120 nM.

As to `COc1cccc(-c2noc(CCC(=O)N3CCN(c4cc(C)ccc4C)CC3)n2)c1`, the inhibition constant (Ki) is 590 nM.

On to `Cc1ccc(C)c(N2CCN(C(=O)CCc3nc(-c4cccc(Cl)c4)no3)CC2)c1`, for which the Ki was 460 nM.

On to `Cc1ccc(C)c(N2CCN(C(=O)CCc3nc(-c4cccc(Br)c4)no3)CC2)c1`, for which the Ki is 450 nM.

In the case of `COc1ccc(-c2noc(CCC(=O)N3CCN(c4ccccc4Br)CC3)n2)cc1`, the inhibitory constant (Ki) was 490 nM.

As to `COc1ccc(-c2noc(CCC(=O)N3CCN(c4cccc(OC)c4)CC3)n2)cc1`, the inhibition constant Ki is 2550 nM.

Regarding `Cc1ccc(-c2noc(CCC(=O)N3CCN(c4cc(C)ccc4C)CC3)n2)cc1`, the Ki was 920 nM.

As for `Cc1ccc(C)c(N2CCN(C(=O)CCc3nc(-c4ccc(C(F)(F)F)cc4)no3)CC2)c1`, the inhibitory constant (Ki) was 680 nM.

Turning to `COc1ccc(-c2cccc(CCC(=O)N3CCN(c4cc(C)ccc4C)CC3)c2)cc1`, the inhibition constant Ki is 780 nM.

For the compound `COc1ccc(-c2noc(CCC(=O)N3CCC(c4cc(C)ccc4C)CC3)n2)cc1`, the Ki is 300 nM.

Turning to `Cc1ccc(C)c(N2CCN(C(=O)CCc3nc(-c4ccccc4C(F)(F)F)no3)CC2)c1`, the inhibition constant (Ki) was 1050 nM.

For `Cc1ccc(C)c(N2CCN(C(=O)CCc3nc(-c4ccc(N(C)C)cc4)no3)CC2)c1`, the Ki is 250 nM.

Regarding `COc1ccc(-c2noc(CCC(=O)N3CCN(c4cc(C)ccc4C)CC3)n2)cc1`, the Ki is 580 nM.

With `COc1ccc(-c2noc(CCC(=O)N3CCN(c4ccccc4C)CC3)n2)cc1`, the Ki is 360 nM.

Regarding `COc1ccc(-c2noc(CCC(=O)N3CCN(c4cccc(C)c4C)CC3)n2)cc1`, the Ki was 240 nM.

`Cc1ccc(C)c(N2CCN(C(=O)CCc3nc(-c4ccccc4Br)no3)CC2)c1`: the inhibition constant Ki was 490 nM.

For `COc1ccccc1-c1noc(CCC(=O)N2CCN(c3cc(C)ccc3C)CC2)n1`, the inhibition constant Ki is 330 nM.

For the compound `COc1ccc(-c2noc(CCC(=O)N3CCN(c4cccc(C(F)(F)F)c4)CC3)n2)cc1`, the Ki was 410 nM.

`COc1ccc(-c2coc(CCC(=O)N3CCN(c4cc(C)ccc4C)CC3)n2)cc1`: the Ki is 480 nM.

Turning to `Cc1ccc(C)c(N2CCN(C(=O)CCc3nc(-c4ccc(Cl)cc4)no3)CC2)c1`, the inhibitory constant (Ki) was 360 nM.

Take `COc1ccc(-c2noc(CCC(=O)N3CCN(c4ccc(OC)cc4)CC3)n2)cc1`: the Ki is 100 nM.

One may read the Ki as the equilibrium dissociation constant of an inhibitor or competing ligand from its target.
